According to US20130338165A1 (Promentis Pharmaceuticals, Inc., priority 2012, published 2013):

What was measured:
[1] = intravenous administration, clinical experiments; cited from earlier work
[2] = cited from earlier work
cells = settings: cited from earlier work
brain of rats = settings: systemic administration; cited from earlier work
mice treated with MPTP = settings: cited from earlier work
brain of gerbils = settings: systemic administration; cited from earlier work
[3] = tested on: alpha-synuclein overexpressing mice; settings: mouse, in vivo; cited from earlier work
[4] = elevated plus maze (EPM) model of anxiolytic-like activity; assay type: in vivo; settings: orally-active
[5] = pre-pulse inhibition (PPI) model of antipsychotic-like activity; assay type: in vivo; settings: orally-active
system xc− = target: T1, system xc− (Homo sapiens, UniProt Q9UPY5); test: in vitro screening assay of system xc− (14C-cystine uptake, 3H-glutamate) in 1321N1 cells; assay type: cell-based; settings: human glial cells from brain astrocytoma (1321N1)
T1 construct: a cell line with high system xc− expression; endogenous in cells; host or cells: 1321N1 human astrocytoma cells
T1 sequence (Q9UPY5 1-501): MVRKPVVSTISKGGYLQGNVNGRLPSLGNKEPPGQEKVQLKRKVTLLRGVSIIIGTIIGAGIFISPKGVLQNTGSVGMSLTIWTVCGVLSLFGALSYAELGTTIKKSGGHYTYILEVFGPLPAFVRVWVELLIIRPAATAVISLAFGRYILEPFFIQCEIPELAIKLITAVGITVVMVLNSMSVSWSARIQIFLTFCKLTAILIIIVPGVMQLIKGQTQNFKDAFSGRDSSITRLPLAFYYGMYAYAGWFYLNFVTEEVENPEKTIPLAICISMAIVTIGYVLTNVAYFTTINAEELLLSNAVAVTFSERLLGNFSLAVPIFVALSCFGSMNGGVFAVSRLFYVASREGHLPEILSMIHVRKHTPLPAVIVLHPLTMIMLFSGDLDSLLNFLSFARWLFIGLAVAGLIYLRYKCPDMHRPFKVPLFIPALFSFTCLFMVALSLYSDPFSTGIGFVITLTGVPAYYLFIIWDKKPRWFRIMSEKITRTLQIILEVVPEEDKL
T1 sequence (P08195 1-529 partner): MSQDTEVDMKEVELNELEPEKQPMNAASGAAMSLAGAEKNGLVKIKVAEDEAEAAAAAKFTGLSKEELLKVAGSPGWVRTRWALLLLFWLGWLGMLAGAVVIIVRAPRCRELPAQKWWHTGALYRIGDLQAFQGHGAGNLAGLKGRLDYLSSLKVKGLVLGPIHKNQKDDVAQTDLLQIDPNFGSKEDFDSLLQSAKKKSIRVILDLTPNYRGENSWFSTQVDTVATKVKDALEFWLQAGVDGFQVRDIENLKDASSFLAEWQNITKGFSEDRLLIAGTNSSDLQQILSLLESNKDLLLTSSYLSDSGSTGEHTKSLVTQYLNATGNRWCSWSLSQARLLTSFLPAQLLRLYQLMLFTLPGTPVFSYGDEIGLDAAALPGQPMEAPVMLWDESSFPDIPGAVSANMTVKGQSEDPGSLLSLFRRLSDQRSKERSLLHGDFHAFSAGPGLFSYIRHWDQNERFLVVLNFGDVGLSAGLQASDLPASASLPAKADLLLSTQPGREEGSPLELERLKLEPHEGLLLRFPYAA
Text: Using an in vitro screening assay conducted in human glial cells from brain astrocytoma (1321N1), a cell line with high system xc− expression, the compound with the following formula: […]

## N[C@@H](CCC(=O)N[C@@H](CS)C(=O)NCC(=O)O)C(=O)O [glutathione]
[1]
  reduction of motor impairment and disability: 40%
[2]
  solubility characteristics: poor

## CC(=O)N[C@H](CS)C(N)=O
cells
  protection of cells from neurotoxicity induced by rotenone: protected cells from neurotoxicity

## CC(=O)N[C@@H](CS)C(=O)O [NAC, N-acetylcysteine]
Brain of rats
  protection against oxidative stress in the brain: provides protection against oxidative stress
Mice treated with MPTP; Aoyama et al., 2008, Perry et al., 1985
  neuroprotective effect in different MPTP mouse models: partial neuroprotective effect
Mice treated with MPTP; mouse, in vivo
  therapeutic potential in MPTP-treated mice: exhibited therapeutic potential
Brain of gerbils
  protection against oxidative stress in the brain: provides protection against oxidative stress
[3]
  therapeutic potential in alpha-synuclein overexpressing mice: exhibited therapeutic potential
[2]
  solubility characteristics: poor

## O=C(Cc1ccccc1)N[C@@H](CSC(c1ccccc1)(c1ccccc1)c1ccccc1)C(=O)O
[4]
  behavioral effects in EPM model: significant behavioral effects
[5]
  behavioral effects in PPI model: significant behavioral effects
System xc−
  3H-glutamate (glutamate release): significant elevations
  uptake of 14C-cystine: robust and significant decrease
